Results as given in US20020192178A1, “Leguminous extract heavy-metal-scavenging anti-pollution agent” (L'OREAL, priority 2001, published 2002).

System: immortalized human keratinocytes (DK7-NR)
Experiment: Protective effect against cadmium cytotoxicity, Neutral Red incorporation test
Assay type: cell-based
Settings: cadmium chloride alone, 0% extract of maize, 24 hours; read-out: IC50 (concentration of CdCl2 inducing a 50% decrease in viability)
Protocol: Heavy metals such as cadmium, nickel, lead, mercury, etc. can cause cytotoxicity on the cells of various organs including the skin. The cytotoxic effect of cadmium on human keratinocytes in culture was evaluated by a technique for measuring the cell viability: the Neutral Red incorporation test (Culture Methods. 1984, 9, 7-9).
The study was performed on a monolayer culture of immortalized human keratinocytes (DK7-NR) by the Nestle research center. The cells are inoculated on D-3 in 96-well culture dishes at a rate of 25 000 cells/cm^2 in 100 µl of culture medium (medium defined without calf serum, NR2, Biofluids). The incubations are performed in an incubator at 37° C. in humid atmosphere enriched with 5% CO2.
The cells are treated [lacuna] 24 hours with increasing concentrations (0, 10, 25, 50, 75, 100, 150 and 200 μM) of cadmium chloride (CdC12) alone, so as to determine its cytotoxicity. In parallel, a treatment is performed under the same conditions, but in the presence of the extract of maize (Phytovityl® at 0.5% and 1%, non-cytotoxic concentrations for the cells). The incubations are performed in an incubator at 37° C., 5% CO2 in a humid atmosphere.
At the end of the contact period, the cell viability is determined by means of a Neutral Red (POS 55/006) incorporation test, with spectrophotometric reading at 500 nm. […]

[Cl][Cd][Cl] [cadmium chloride]
IC50: 37.7 µM
